Assay [1] deals with T1, Dual specificity mitogen-activated protein kinase kinase 7 (Homo sapiens) (UniProt O14733).
T1 sequence (whole entry): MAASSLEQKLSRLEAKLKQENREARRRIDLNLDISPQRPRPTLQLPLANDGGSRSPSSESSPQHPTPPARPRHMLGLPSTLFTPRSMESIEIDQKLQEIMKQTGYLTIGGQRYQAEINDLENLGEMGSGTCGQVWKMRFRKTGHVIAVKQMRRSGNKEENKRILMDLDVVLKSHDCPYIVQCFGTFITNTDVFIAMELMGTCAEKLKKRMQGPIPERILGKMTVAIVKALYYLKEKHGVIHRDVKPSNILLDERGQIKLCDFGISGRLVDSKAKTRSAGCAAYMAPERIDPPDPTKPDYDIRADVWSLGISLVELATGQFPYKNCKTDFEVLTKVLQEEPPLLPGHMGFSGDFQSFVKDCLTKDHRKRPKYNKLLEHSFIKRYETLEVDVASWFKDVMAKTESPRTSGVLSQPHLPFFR
Briefly: Inhibition of MKK7 (unknown origin) at 1 uM by Ambit Kinomescan binding assay relative to control.

In assay [2] the target is Tyrosine-protein kinase HCK (Homo sapiens) (UniProt P08631). Briefly: Inhibition of HCK (unknown origin) at 1 uM by Ambit Kinomescan binding assay relative to control; values are per cent of control.
The target in assay [3] is T2, Mitogen-activated protein kinase kinase kinase 5 (Homo sapiens) (UniProt Q99683).
T2 sequence (whole entry): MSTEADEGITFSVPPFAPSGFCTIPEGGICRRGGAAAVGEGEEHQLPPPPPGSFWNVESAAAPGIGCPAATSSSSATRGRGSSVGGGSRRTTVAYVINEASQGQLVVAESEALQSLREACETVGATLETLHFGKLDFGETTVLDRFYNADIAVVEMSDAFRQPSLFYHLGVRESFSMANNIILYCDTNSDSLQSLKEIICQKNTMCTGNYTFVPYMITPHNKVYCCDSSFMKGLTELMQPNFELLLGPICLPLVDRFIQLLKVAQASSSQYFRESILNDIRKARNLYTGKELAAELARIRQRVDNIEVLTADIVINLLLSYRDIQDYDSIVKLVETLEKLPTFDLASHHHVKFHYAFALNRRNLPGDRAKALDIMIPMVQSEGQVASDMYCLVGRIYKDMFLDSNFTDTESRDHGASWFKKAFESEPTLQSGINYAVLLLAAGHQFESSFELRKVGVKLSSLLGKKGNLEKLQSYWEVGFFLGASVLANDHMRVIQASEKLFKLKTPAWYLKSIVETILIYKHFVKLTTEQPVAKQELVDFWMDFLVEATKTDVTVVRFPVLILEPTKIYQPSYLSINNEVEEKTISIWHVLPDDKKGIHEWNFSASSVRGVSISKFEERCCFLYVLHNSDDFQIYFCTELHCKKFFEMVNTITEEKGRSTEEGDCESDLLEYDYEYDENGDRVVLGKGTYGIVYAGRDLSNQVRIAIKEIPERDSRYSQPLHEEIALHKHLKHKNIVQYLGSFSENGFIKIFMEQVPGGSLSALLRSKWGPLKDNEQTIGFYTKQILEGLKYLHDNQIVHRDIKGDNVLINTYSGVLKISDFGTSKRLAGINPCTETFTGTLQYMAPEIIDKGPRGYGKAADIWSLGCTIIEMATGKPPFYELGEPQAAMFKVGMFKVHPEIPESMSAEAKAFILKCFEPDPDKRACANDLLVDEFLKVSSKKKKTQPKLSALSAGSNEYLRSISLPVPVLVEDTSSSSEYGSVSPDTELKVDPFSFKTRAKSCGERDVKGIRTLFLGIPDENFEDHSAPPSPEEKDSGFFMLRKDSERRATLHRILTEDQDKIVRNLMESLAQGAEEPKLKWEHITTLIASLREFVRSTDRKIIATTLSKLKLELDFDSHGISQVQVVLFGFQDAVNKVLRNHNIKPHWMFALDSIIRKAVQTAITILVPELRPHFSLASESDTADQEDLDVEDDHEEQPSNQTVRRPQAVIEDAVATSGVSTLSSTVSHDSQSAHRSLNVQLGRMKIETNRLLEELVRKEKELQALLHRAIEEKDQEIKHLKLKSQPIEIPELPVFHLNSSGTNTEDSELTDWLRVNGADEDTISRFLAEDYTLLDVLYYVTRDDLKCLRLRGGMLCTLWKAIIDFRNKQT
Description: Inhibition of ASK1 (unknown origin) at 1 uM by Ambit Kinomescan binding assay relative to control.

Assay [4] addresses Death-associated protein kinase 1 (Homo sapiens) (UniProt P53355). Description: Inhibition of DAPK1 (unknown origin) at 1 uM by Ambit Kinomescan binding assay relative to control; values are per cent of control.
Assay [5] concerns the target Tyrosine-protein kinase Lyn (Homo sapiens, UniProt P07948). Briefly: Inhibition of LYN Lys1 labeling site in human A-375 cells at 0.05 uM by KiNativ Profiling analysis relative to control. The class given is cell-based.

The inhibition is the share of the control response that was lost under treatment. The low end stands for a weak effect, the high end for a strong effect. Broadly, the residual activity is what remains of the control signal, in per cent. Lower therefore signals a large loss of activity.

Sequence of Tyrosine-protein kinase Lyn (P07948 2-512 limits assumed): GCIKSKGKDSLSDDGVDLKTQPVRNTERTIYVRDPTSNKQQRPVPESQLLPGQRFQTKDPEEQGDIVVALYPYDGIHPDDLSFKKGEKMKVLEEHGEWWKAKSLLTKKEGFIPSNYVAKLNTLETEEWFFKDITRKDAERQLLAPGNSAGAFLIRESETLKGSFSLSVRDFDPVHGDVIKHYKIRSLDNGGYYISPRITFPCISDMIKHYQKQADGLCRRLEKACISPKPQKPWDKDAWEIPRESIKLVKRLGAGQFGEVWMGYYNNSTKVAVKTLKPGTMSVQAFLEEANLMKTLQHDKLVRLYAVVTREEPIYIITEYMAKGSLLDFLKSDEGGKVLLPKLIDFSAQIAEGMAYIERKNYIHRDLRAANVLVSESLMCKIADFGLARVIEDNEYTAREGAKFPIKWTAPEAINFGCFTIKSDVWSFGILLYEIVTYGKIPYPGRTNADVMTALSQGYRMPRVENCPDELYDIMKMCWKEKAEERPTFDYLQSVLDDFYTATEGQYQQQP
Sequence of Death-associated protein kinase 1 (Homo sapiens) (P53355 whole entry, looked up): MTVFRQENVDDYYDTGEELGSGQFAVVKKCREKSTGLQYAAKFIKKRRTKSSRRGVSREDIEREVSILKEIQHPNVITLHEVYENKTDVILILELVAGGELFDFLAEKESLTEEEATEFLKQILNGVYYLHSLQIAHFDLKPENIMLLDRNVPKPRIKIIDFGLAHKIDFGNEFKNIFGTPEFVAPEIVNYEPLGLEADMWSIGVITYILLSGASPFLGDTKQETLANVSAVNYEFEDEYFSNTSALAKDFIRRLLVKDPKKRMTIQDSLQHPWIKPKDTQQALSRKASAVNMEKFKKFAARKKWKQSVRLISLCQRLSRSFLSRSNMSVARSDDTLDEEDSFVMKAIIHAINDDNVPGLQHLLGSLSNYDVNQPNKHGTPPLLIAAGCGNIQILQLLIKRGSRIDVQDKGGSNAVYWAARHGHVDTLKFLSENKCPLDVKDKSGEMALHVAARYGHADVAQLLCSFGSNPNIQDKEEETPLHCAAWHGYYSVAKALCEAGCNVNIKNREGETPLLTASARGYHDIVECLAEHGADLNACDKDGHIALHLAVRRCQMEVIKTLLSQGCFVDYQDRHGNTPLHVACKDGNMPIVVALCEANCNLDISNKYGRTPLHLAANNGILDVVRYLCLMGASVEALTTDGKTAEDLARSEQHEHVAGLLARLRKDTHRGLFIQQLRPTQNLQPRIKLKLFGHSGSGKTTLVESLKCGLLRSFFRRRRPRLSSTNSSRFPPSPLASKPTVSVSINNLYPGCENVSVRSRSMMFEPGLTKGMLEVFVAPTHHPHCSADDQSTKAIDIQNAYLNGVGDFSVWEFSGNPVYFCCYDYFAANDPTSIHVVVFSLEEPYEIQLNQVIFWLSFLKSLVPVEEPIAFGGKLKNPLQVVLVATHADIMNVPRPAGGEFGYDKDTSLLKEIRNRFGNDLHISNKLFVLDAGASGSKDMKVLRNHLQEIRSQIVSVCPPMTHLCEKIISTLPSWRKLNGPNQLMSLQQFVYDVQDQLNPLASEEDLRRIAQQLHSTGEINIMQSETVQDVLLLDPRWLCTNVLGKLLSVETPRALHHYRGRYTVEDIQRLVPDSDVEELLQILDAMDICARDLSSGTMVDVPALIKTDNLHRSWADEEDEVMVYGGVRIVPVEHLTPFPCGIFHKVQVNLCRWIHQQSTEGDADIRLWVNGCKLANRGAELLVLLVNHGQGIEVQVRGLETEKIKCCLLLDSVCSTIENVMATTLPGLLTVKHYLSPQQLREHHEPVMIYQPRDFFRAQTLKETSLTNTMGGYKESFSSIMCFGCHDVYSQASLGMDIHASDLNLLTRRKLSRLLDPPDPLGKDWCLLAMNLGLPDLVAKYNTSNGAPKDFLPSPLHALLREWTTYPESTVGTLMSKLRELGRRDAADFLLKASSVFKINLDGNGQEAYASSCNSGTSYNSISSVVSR
Sequence of Tyrosine-protein kinase HCK (Homo sapiens) (P08631 2-526 limits assumed): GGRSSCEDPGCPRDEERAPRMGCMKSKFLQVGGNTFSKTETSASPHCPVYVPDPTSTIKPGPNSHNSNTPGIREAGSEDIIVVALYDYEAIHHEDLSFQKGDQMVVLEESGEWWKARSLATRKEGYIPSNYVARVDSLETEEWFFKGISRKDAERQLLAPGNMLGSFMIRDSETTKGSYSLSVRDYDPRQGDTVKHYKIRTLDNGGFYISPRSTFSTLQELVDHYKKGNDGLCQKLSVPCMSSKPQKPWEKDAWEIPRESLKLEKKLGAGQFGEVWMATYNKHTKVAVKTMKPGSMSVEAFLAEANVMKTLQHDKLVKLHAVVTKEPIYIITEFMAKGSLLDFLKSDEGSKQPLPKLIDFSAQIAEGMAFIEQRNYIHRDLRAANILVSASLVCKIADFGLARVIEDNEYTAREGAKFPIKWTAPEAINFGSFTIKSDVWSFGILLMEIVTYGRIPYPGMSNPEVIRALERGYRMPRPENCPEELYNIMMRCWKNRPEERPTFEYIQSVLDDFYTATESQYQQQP

Regarding `CCN1CCN(Cc2ccc(NC(=O)c3ccc(C)c(/C=C/c4cnc5[nH]ccc5c4OC)c3)cc2C(F)(F)F)CC1`, the inhibition was found to be 39% in assay [1] and 100% in assay [3]. Also, the residual activity was 0.5% in assay [2] and 77% in assay [4].
In turn, `CCN1CCN(Cc2ccc(NC(=O)c3ccc(C)c(Oc4ccnc5[nH]ccc45)c3)cc2C(F)(F)F)CC1` had an inhibition in assay [5] of 71.9%.
